The results in this text go back to EP4678629A1, “IONIZABLE LIPID MOLECULE, PREPARATION METHOD THEREFOR AND USE THEREOF” (Maxirna (Shanghai) Pharmaceutical Co., Ltd., priority 2023, dated 2024).

Data set [1] is described as follows: Encapsulation efficiency of the lipid nanoparticle (eGFP mRNA) by Ribogreen method. The conditions noted are these: LNP encapsulating eGFP mRNA, ionizable lipid/DOPE/cholesterol/DMG-PEG2000 50/10/48.25/1.25 mol%, N/P 12. Type of data set: physicochemical. Here is the method: (§1) The ionizable lipid compound and positive control 1 from Example I were dissolved in ethanol at a molar ratio of 50:10:48.25:1.25 with DOPE, cholesterol, and DMG-PEG2000 (all purchased from A.V.T (Shanghai) Pharmaceutical Co., Ltd.) to prepare an ethanol lipid solution. The enhanced green fluorescent protein (eGFP) mRNA was diluted in 20 mM citrate buffer (pH=6.1) to obtain an mRNA aqueous solution. By using a microfluidic device (Micro&Nano Biologics Co., Ltd., model: INano ™ L) mix ethanol lipid solution and mRNA aqueous solution in a volume ratio of 1:3 to prepare a lipid nanoparticle with a total lipid to mRNA N/P ratio of 12. The medium was replaced by ultrafiltration, ethanol was removed and volumed with DPBS. Finally, the lipid nanoparticle was filtered through a 0.2 µm sterile filter to obtain an LNP preparation encapsulating eGFP mRNA using ionizable lipid/DOPE/cholesterol/DMG-PEG2000 (50/10/48.25/1.25 mol%), with an mRNA content of 0.002 mg/ml-0.5 mg/mL.
(§2) Using Malvern Zetasizer Nano ZS (Malvern UK), the size and polydispersity index (PDI) of the lipid nanoparticle were determined by dynamic light scattering in 173° backscatter detection mode, and the encapsulation efficiency was measured by Ribogreen method.

In data set [2] the test system is DC2.4 cells. The experiment in a line: In vitro transfection of cells with eGFP-mRNA lipid nanoparticle (LNP preparation), fluorescence imaging and flow cytometry. Type of data set: cell-based, mouse. The conditions noted are these: eGFP positivity rate, DC2.4 cells, 200 ng of mRNA per well, after 24 hours. The text has this: (§3) This example used mouse bone marrow-derived dendritic cells DC2.4 (purchased from Millipore) as the validation cell line for a lipid nanoparticle transfection experiment. DC2.4 cells adhered to the wall for growth. All operational steps of cell culture strictly followed the prescribed procedures, using sterile reagents for aseptic operations under a sterile workbench. The main operational steps involved were as follows: • 1) Cell recovery: the preserved cell cryopreservation solution was removed from the -80 °C freezer and immediately placed in a 37 °C water bath for rapid and continuous shaking, allowing it to completely melt within one minute. Fresh culture medium was added to a 15 mL centrifuge tube in advance, and the cell fluid was added to the centrifuge tube in a biosafety cabinet. A centrifuge tube of the same mass was taken, placed symmetrically in the centrifuge, and centrifuged at low speed for 5 minutes at 1200 rpm. After centrifugation, the upper clear liquid was removed, and an appropriate amount of culture medium was slowly added along the tube wall. After the cells were gently blown and dispersed evenly, the cell suspension was drawn and added to the prepared culture bottle. The state and distribution of cells in the early stage of recovery were observed under a microscope. The culture bottle was incubated in a 5% CO2 incubator at 37 °C, and the recovery time was recorded. • 2) Cell passaging: Under a microscope, if the cell density in the field of view reached 80%-90%, cells could be passaged and cultured. Adherent cells required trypsin digestion. In order to avoid residual serum in the culture medium reducing trypsin activity, the original culture medium was removed, and DPBS solution was added to wash once. After suctioning out the DPBS solution, trypsin was added to degrade the protein at the intercellular junction, thereby separating the cells and facilitating further cultivation. The mixture was gently shaken well and placed into the incubator for digestion for 2-3 minutes. After digestion was complete, an appropriate amount of culture medium was immediately added to the original culture dish to terminate digestion. Finally, a pipette was used to carefully blow off the cells and blow them until they were evenly dispersed, and then the cells were inoculated and subcultured in a certain proportion according to experimental requirements.
(§4) Transfection of DC2.4 cells • 1) DC2.4 cell recovery: the frozen DC2.4 cells were taken out from the -80 °C refrigerator and immediately put into a 37 °C water bath for rapid thawing. After melting, they were added to the preheated culture medium, and centrifuged at 1200 rpm for 5 minutes. The supernatant was discarded, and an appropriate amount of DMEM medium containing 10% FBS was added to resuspend the recovered DC2.4 cells, which were placed in a 37 °C, 5% CO2 incubator for activation culture. • 2) According to experimental requirements, DC2.4 cells were transfected into 24 well plates one day in advance. By counting cells, the number and viability of cells were recorded, and a cell suspension with 2 × 10^5 cells per well were taken. Then, a certain volume of DMEM medium containing 10% FBS was added and mixed evenly, wherein 1 mL was added per well for subsequent transfection experiments. • 3) After 24 hours, the culture medium was gently aspirated with a pipette 30 minutes in advance, and each well was washed with 1 mL of DPBS and aspirated. […] The mixture was placed in a 37 °C, 5% CO2 incubator for activation cultivation. • 6) After 24 hours, cell viability (%), eGFP positivity rate (%), and mean fluorescence intensity data were obtained through cell fluorescence imaging and flow cytometry.
Background: A flow cytometer gives signals particle by particle.

Assay in data set [3]: as above
Type of data set: cell-based, mouse. The settings on record: mouse, dc2.4 cells, 200 ng of mRNA per well, after 24 hours; read-out: Cell viability, %.
Text: as §3, §4

Data set [4] is described as follows: Size and polydispersity index (PDI) of the lipid nanoparticle by dynamic light scattering. It is filed as physicochemical. The conditions noted are these: LNP encapsulating eGFP mRNA, ionizable lipid/DOPE/cholesterol/DMG-PEG2000 50/10/48.25/1.25 mol%, N/P 12; for Particle size: in nm (unit assumed). As to the method:
as §1, §2

A word on the viability: it is a read-out of living cells in per cent, often relative to untreated cells.

As to `CCCCCCCCCCCCCOC(=O)CCCCCCN(CCCO)CCCN(CCCCCCC(=O)OCCCCCCCCCCCCC)CCCCCCC(=O)OCCCCCCCCCCCCC` [Example 34], the “Encapsulation rate, %” value in data set [1] turned out to be 99.39%. In addition, the “Positive rate, %” value in data set [2] is listed as 93.19%. Besides, the viability at 24 h in data set [3] was 95%. In data set [4], this compound registered a PDI of 0.16 and a Particle size of 82.74.
As to `CCCCCCCCCCCCCOC(=O)CCCCCCCN(CCO)CCCN(CCCCCCCC(=O)OCCCCCCCCCCCCC)CCCCCCCC(=O)OCCCCCCCCCCCCC` [Example 13, Ditridecyl 8,8'-((3-((2-hydroxyethyl)(8-oxo-8-(tridecyloxy)octyl)amino)propyl)azanediyl)dioctanoate], in data set [1], the “Encapsulation rate, %” value came out at 96.34%. Besides, in data set [2], the “Positive rate, %” value was determined as 93.23%. For the same compound, in data set [3], the viability at 24 h amounted to 91.3%. The same compound gave a PDI in data set [4] of 0.21.
For the compound `CCCCC/C=C\C/C=C\CCCCCCCCOC(=O)CCCCCCCN(CCCO)CCCN(CCCCCCCC(=O)OCCCCCCCC/C=C\C/C=C\CCCCC)CCCCCCCC(=O)OCCCCCCCC/C=C\C/C=C\CCCCC` [Example 95], the “Encapsulation rate, %” value in data set [1] is given as 92.93%. The “Positive rate, %” value in data set [2] was 93.13%. Besides, the viability at 24 h in data set [3] was 95.9%. In addition, the PDI in data set [4] turned out to be 0.11.
For `CCCCCCCCCCOC(=O)CCCN(CCO)CCCN(CCCC(=O)OCCCCCCCCCC)CCCC(=O)OCCCCCCCCCC` [Example 93, Decyl 4-(20-(2-hydroxyethyl)-12,24-dioxo-16,20-diaza-11,25-dioxapentatriacontane-16-yl)butanoate], the “Encapsulation rate, %” value in data set [1] is recorded as 93.28%. Also, the “Positive rate, %” value in data set [2] worked out at 85.37%. Moreover, in data set [3], the viability at 24 h is 82.6%. Further, in data set [4], the PDI worked out at 0.17 and the Particle size came to 98.21.
On the same counts, the results for `CCCCCCCCCCCCCOC(=O)CN(CCCO)CCCN(CC(=O)OCCCCCCCCCCCCC)CC(=O)OCCCCCCCCCCCCC` [Example 77, Ditridecyl 2,2'-((3-((3-hydroxypropyl)(2-oxo-2-(tridecyloxy)ethyl)amino)propyl)azanediyl)diacetate] are 99.78%, 90.71%, 83.9%, 70.33 and 99.78.
For the compound `CCCCCCCCCCCCCOC(=O)CCCN(CCO)CCCN(CCCC(=O)OCCCCCCCCCCCCC)CCCC(=O)OCCCCCCCCCCCCC` [Example 62, Ditridecyl 4,4'-((3-((2-hydroxyethyl)(4-oxo-4-(tridecyloxy)butyl)amino)propyl)azanediyl)dibutanoate], the “Encapsulation rate, %” value in data set [1] was 99.32%. For the same compound, in data set [2], the “Positive rate, %” value is on record as 96.24%. In data set [3], the viability at 24 h stood at 59%. In data set [4], this compound registered a PDI of 0.16 and a Particle size of 99.80.
With `CCCCCC/C=C\COC(=O)CCCN(CCO)CCCN(CCCC(=O)OC/C=C\CCCCCC)CCCC(=O)OC/C=C\CCCCCC` [Example 16, Di((Z)-non-2-en-1-yl)4,4'-((3-((2-hydroxyethyl)(4-(((Z)-non-2-en-1-yl)oxo)-4-oxobutyl)amino)propyl)azanediyl)dibutanoate], in data set [1], the “Encapsulation rate, %” value is recorded as 86.73%. Also, the “Positive rate, %” value in data set [2] turned out to be 94.18%. Also, the viability at 24 h in data set [3] turned out to be 84.6%. Also, in data set [4], the PDI was found to be 0.18 and the Particle size came out at 99.65.
Take `CCCCCC/C=C\COC(=O)CCCCCN(CCO)CCCN(CCCCCC(=O)OC/C=C\CCCCCC)CCCCCC(=O)OC/C=C\CCCCCC` [Example 25, Di((Z)-non-2-en-1-yl)6,6'-((3-((2-hydroxyethyl)(6-(((Z)-non-2-en-1-yl)oxo)-6-oxohexyl)amino)propyl)azanediyl)dihexanoate]: the “Encapsulation rate, %” value in data set [1] worked out at 98.27%. Moreover, the “Positive rate, %” value in data set [2] is 94.29%. Also, the viability at 24 h in data set [3] is 76.6%. Besides, the PDI in data set [4] was 0.17.
On the same counts, the results for `CCCCCCCOC(=O)CCCCCCCN(CCO)CCCN(CCCCCCCC(=O)OCCCCCCC)CCCCCCCC(=O)OCCCCCCC` [Example 4, Diheptyl 8,8'-((3-((8-(heptyloxy)-8-oxooctyl)(2-hydroxyethyl)amino)propyl)azanediyl)dioctanoate] are 60.89%, 78.26%, 75.9% and 0.25.
Consider `CCCCCCCCCCCCOC(=O)CCCCCCCN(CCO)CCCN(CCCCCCCC(=O)OCCCCCCCCCCCC)CCCCCCCC(=O)OCCCCCCCCCCCC` [Example 50, Didodecyl 8,8'-((3-((8-(dodecyloxy)-8-oxooctyl)(2-hydroxyethyl)amino)propyl)azanediyl)dioctanoate], for which the “Encapsulation rate, %” value in data set [1] is listed as 99.63%. The “Positive rate, %” value in data set [2] came out at 99.74%. Also, in data set [3], the viability at 24 h came out at 90.4%. In data set [4], the PDI is given as 0.20 and the Particle size is 76.74.
In the same order, the values of `CCCCCCCCCCCOC(=O)CCCCCCCCCN(CCO)CCCN(CCCCCCCCCC(=O)OCCCCCCCCCCC)CCCCCCCCCC(=O)OCCCCCCCCCCC` [Example 14, Diundecyl 10,10'-((3-((2-hydroxyethyl)(10-oxo-10-(undecyloxy)decyl)amino)propyl)azanediyl)dicaprate] are 97.23%, 95.61%, 97.9%, 0.21 and 98.45.
For `CCCCCCCCCCCCOC(=O)CCCCCCN(CCCCO)CCCN(CCCCCCC(=O)OCCCCCCCCCCCC)CCCCCCC(=O)OCCCCCCCCCCCC` [Example 49, Didodecyl 7,7'-((3-((7-(dodecyloxy)-7-oxoheptyl)(4-hydroxybutyl)amino)propyl)azanediyl)diheptanoate], the “Encapsulation rate, %” value in data set [1] came to 99.79%. Also, the “Positive rate, %” value in data set [2] was 97.38%. Besides, in data set [3], the viability at 24 h came to 91.6%. In data set [4], this compound returned a PDI of 0.15 and a Particle size of 74.58.
Take `CCCCCC/C=C\COC(=O)CCCCCCCN(CCCO)CCCN(CCCCCCCC(=O)OC/C=C\CCCCCC)CCCCCCCC(=O)OC/C=C\CCCCCC` [Example 19, Di((Z)-non-2-en-1-yl)8,8'-((3-((3-hydroxypropyl)(8-(((Z)-non-2-en-1-yl)oxo)-8-oxooctyl)amino)propyl)azanediyl)dioctanoate]: the “Encapsulation rate, %” value in data set [1] was 92.54%. Besides, the “Positive rate, %” value in data set [2] is 97.44%. Also, the viability at 24 h in data set [3] stood at 95.6%. Besides, the PDI in data set [4] came out at 0.26.
